Measurements published in ChEMBL document CHEMBL5034004, “Discovery of M3 Antagonist-PDE4 Inhibitor Dual Pharmacology Molecules for the Treatment of Chronic Obstructive Pulmonary Disease” (J Med Chem, 2021).
In brackets after ≈: the same amount, converted by molar mass.

Key:
Cavia porcellus [1] = experiment: Bronchodilatory activity in Dunkin Hartley guinea pig model assessed as inhibition of acetylcholine-induced bronchoconstriction at 3 nmol/kg, IT measured after 1 hr by Konzett-Roessler methodology relative to control; format: functional; settings: for inhibition in vivo at 0.003 µmol/kg: Cavia porcellus, Dunkin Hartley
[2] = Antiinflammatory activity in human PBMCs assessed as inhibition of LPS-induced TNF-alpha release measured after 18 hrs by ELISA; format: functional, tissue-based, PBMC; settings: for IC50: Homo sapiens, PBMC, 18 h; for pIC50: pbmc
[3] = target: 3',5'-cyclic-AMP phosphodiesterase 4B (Homo sapiens, UniProt Q07343); experiment: Inhibition of human recombinant PDE4B2 assessed as […] in cAMP level incubated for 2 hrs by LANCE Ultra cAMP TR-FRET assay
Sequence of 3',5'-cyclic-AMP phosphodiesterase 4B (Q07343 whole entry): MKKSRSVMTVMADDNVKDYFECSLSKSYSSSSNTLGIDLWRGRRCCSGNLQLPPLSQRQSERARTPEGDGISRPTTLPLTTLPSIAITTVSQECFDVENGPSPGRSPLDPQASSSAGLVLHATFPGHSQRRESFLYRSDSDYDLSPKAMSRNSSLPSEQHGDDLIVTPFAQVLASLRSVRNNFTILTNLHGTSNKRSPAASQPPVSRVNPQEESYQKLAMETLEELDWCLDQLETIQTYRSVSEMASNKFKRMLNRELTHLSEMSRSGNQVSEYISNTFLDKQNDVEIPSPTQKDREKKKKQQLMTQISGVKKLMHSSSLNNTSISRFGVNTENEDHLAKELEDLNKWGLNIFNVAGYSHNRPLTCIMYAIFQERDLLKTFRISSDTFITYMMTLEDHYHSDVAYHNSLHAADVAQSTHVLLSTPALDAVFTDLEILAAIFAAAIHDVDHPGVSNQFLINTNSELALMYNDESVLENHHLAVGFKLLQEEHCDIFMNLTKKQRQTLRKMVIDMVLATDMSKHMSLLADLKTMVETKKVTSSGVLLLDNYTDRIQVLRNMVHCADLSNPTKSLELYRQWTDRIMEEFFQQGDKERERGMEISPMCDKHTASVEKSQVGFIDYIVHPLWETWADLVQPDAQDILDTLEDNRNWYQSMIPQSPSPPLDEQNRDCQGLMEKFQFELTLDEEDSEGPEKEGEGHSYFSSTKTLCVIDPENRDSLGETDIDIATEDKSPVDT

[4] = target: T1, Muscarinic acetylcholine receptor M3 (Homo sapiens, UniProt P20309); experiment: Displacement of [3H]-N-methyl Scopolamine Chloride from human M3 receptor membranes incubated for 2 hrs by scintillation counting analysis; format: cell membranes, Cell membrane
Target sequence in this assay (P20309 whole entry): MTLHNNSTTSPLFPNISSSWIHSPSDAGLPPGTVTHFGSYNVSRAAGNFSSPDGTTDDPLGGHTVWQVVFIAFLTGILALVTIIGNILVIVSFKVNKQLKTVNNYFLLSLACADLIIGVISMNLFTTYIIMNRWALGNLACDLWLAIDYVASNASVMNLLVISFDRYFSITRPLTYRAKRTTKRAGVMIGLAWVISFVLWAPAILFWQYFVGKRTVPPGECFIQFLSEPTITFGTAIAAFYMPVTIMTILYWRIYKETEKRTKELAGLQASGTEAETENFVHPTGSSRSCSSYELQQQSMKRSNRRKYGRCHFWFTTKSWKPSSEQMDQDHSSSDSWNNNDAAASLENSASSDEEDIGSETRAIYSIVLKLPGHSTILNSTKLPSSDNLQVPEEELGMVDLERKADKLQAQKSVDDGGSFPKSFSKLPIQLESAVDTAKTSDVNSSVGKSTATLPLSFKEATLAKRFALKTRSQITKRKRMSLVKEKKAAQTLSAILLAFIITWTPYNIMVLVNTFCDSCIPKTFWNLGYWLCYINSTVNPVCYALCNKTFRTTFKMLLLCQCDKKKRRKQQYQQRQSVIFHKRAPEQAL

Cavia porcellus [5] = experiment: Bronchodilatory activity in IT dosed Dunkin Hartley guinea pig model assessed as inhibition of acetylcholine-induced bronchoconstriction measured after 1 hr by Konzett-Roessler methodology; format: functional
[6] = Antagonist activity at muscarinic M3 receptor in guinea pig trachea assessed as inhibition of carbachol-induced contraction; format: tissue-based, Cavia porcellus
[7] = Kinetic solubility of compound in PBS at pH 7.4 […] incubated for 2 hrs by LC-UV and LC-MS analysis; format: physicochemical; settings: read-out: Kinetic_solubility
Cavia porcellus [8] = experiment: Bronchodilatory activity in Dunkin Hartley guinea pig model assessed as inhibition of acetylcholine-induced bronchoconstriction at 10 nmol/kg, IT measured after 1 hr by Konzett-Roessler methodology relative to control; format: functional
[9] = target: 3',5'-cyclic phosphodiesterase; experiment: Inhibition of PDE4 in human U-937 cells assessed as […] in cAMP level by LANCE cAMP Assay; format: cell-based
Cavia porcellus [10] = experiment: Bronchodilatory activity in Dunkin Hartley guinea pig model assessed as inhibition of acetylcholine-induced bronchoconstriction at 3 nmol/kg, IT measured after 16 hrs by Konzett-Roessler methodology relative to control; format: functional; settings: for inhibition (INH): 0.003 umol/kg
[11] = target: T1, Muscarinic acetylcholine receptor M3; experiment: Binding affinity to human M3 receptor membranes assessed as dissociation half life by liquid scintillation counting analysis; settings: Cell membrane, filed as antagonist
Target sequence in this assay (P20309 whole entry, looked up): as the sequence (P20309 whole entry) above

[12] = target: T1, Muscarinic acetylcholine receptor M3; experiment: Binding affinity to human M3 receptor membranes assessed as association half life by liquid scintillation counting analysis; settings: Cell membrane, filed as antagonist
Target sequence in this assay (P20309 whole entry, looked up): as the sequence (P20309 whole entry) above

[13] = target: Muscarinic acetylcholine receptor M3 (Rattus norvegicus, UniProt P08483); experiment: Antagonist activity at muscarinic M3 receptor in rat trachea assessed as inhibition of carbachol-induced contraction; format: functional, tissue-based
Sequence of Muscarinic acetylcholine receptor M3 (Rattus norvegicus, UniProt P08483) (P08483 whole entry): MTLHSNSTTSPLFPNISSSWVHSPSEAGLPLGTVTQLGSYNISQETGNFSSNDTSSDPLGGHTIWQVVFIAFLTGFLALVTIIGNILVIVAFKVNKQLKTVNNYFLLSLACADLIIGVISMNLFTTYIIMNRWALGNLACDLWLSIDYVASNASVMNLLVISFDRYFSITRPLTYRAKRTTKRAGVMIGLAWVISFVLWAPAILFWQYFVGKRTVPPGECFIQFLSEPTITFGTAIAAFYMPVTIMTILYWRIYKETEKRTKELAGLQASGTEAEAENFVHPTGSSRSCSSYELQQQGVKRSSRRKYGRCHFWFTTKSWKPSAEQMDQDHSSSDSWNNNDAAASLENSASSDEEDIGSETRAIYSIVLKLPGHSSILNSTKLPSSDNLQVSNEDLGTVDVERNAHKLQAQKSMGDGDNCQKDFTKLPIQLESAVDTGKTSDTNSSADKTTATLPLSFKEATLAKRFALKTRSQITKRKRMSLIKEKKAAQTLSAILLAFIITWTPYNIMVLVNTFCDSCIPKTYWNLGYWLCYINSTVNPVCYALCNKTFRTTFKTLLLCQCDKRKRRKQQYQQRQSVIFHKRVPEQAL

[14] = Plasma protein binding in human assessed as bound fraction at 0.5 to 2 uM measured after 30 mins by HPLC-MS/MS analysis; format: ADME, cell-free; settings: dose 0.5-2 µM, read-out: PPB (converted)
[15] = target: T2, Muscarinic acetylcholine receptor M2 (Homo sapiens, UniProt P08172); experiment: Displacement of [3H]-N-methyl Scopolamine Chloride from human M2 receptor membranes incubated for 2 hrs by scintillation counting analysis; format: cell membranes, Cell membrane
T2 sequence (P08172 whole entry): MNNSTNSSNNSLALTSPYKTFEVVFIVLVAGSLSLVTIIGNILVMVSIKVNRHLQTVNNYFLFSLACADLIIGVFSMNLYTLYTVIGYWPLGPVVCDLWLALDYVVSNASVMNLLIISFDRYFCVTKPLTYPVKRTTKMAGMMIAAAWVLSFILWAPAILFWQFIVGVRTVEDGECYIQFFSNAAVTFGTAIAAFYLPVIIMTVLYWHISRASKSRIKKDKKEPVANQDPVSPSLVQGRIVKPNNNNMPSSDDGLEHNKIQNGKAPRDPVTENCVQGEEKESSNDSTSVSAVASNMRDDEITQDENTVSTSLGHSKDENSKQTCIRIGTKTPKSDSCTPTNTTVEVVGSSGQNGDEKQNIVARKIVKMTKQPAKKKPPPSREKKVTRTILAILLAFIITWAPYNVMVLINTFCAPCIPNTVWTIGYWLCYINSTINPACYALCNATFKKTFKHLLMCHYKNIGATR

[16] = Toxicity in ferret assessed as nausea-like score at 1 umol/kg, IT observed for 4 hrs (Rvb= 12.83+/-5.10); design: species or system Mustela putorius furo; settings: in vivo, inhaled_or_intranasal, dose 1 µmol/kg
[17] = Toxicity in ferret assessed as induction of emesis at 10 umol/kg, IT measured for 4 hrs; design: species or system Mustela putorius furo; settings: in vivo, inhaled_or_intranasal, dose 10 µmol/kg
[18] = Toxicity in ferret assessed as induction of emesis at 1 umol/kg, IT measured for 4 hrs; design: species or system Mustela putorius furo; settings: in vivo, inhaled_or_intranasal, dose 1 µmol/kg
[19] = Stability in human plasma assessed as half life at 5 uM measured up to 180 mins by HPLC-MS/MS analysis; format: ADME, cell-free
[20] = Microsomal stability in rat liver microsomes assessed as intrinsic clearance at 1 uM measured up to 60 mins by HPLC-MS/MS analysis; format: ADME, Microsome; settings: read-out: CLH
[21] = Toxicity in ferret assessed as nausea-like score at 10 umol/kg, IT observed for 4 hrs (Rvb= 12.83+/-5.10); design: species or system Mustela putorius furo; settings: in vivo, inhaled_or_intranasal, dose 10 µmol/kg
[22] = Permeability across apical to basolateral side in human Caco2 cells at 10 uM measured after 1 hr by LC-MS/MS analysis; format: ADME, cell-based; settings: Caco-2
Rattus norvegicus [23] = experiment: Antiinflammatory activity in ovalbumin induced Brown Norway rat airway inflammation model assessed as reduction in eosinophil counts in bronchoalveolar lavage at 1 umol/kg, INH for 3 consecutive days and measured after 24 hrs post last dose; format: functional; design: scale not given: the % may be the effect or the level left; settings: dose 1 µmol/kg; time 3 day
[24] = Microsomal stability in human liver microsomes assessed as intrinsic clearance at 1 uM measured up to 60 mins by HPLC-MS/MS analysis; format: ADME, Microsome; settings: read-out: CLH
[25] = Stability in rat plasma assessed as half life at 5 uM measured up to 180 mins by HPLC-MS/MS analysis; format: ADME, cell-free
[26] = Plasma protein binding in rat assessed as bound fraction at 0.5 to 2 uM measured after 30 mins by HPLC-MS/MS analysis; format: ADME, cell-free; settings: dose 0.5-2 µM, read-out: PPB (converted)
Rattus norvegicus [27] = experiment: Antiinflammatory activity in ovalbumin induced Brown Norway rat airway inflammation model assessed as reduction in eosinophil counts in bronchoalveolar lavage administered via inhalation for 3 consecutive days and measured after 24 hrs post last dose; format: functional; settings: inhaled or nasal
Cavia porcellus [28] = experiment: Bronchodilatory activity in Dunkin Hartley guinea pig model assessed as inhibition of acetylcholine-induced bronchoconstriction at 30 nmol/kg, IT measured after 16 hrs by Konzett-Roessler methodology relative to control; format: functional
Cavia porcellus [29] = experiment: Bronchodilatory activity in Dunkin Hartley guinea pig model assessed as inhibition of acetylcholine-induced bronchoconstriction at 30 nmol/kg, IT measured after 1 hrs by Konzett-Roessler methodology relative to control; format: functional
[30] = Cavia porcellus, Dunkin Hartley, 1 h, read-out: ED50
[31] = Cavia porcellus, Dunkin Hartley, read-out: ED50

COc1ccc([C@H](Cc2c(Cl)c[n+]([O-])cc2Cl)OC(=O)c2ccc(CN(C(=O)O[C@H]3CN4CCC3CC4)c3ccccc3)s2)cc1OC
inhibition in vivo at 0.003 µmol/kg (Cavia porcellus [1]; 1 h): 82%
IC50 [2]: 0.794 nM
IC50 [3]: 1 nM
Ki [4]: 0.1 nM
ED50 (Cavia porcellus [5]; [30]): 0.0016 µmol/kg
pIC50 [6]: 8.4

CCOc1cc([C@H](Cc2c(Cl)c[n+]([O-])cc2Cl)OC(=O)c2ccc(CN(C(=O)O[C@H]3CN4CCC3CC4)c3ccccc3F)s2)ccc1OC(F)F
Ki [4]: 0.316 nM
pIC50 [6]: 8.3
solubility kinetic at 2 h [7]: < 5 µM

COc1ccc([C@H](Cc2c(Cl)c[n+]([O-])cc2Cl)OC(=O)c2ccc(CN(C(=O)O[C@H]3CN4CCC3CC4)c3ccccn3)s2)cc1OC
IC50 [2]: 0.501 nM
inhibition in vivo at 0.01 µmol/kg (Cavia porcellus [8]): 78%
IC50 [3]: 0.631 nM
Ki [4]: 0.501 nM
pIC50 [6]: 8.7

CC(C)Oc1cc([C@H](Cc2c(Cl)c[n+]([O-])cc2Cl)OC(=O)c2ccc(CN(C(=O)O[C@H]3CN4CCC3CC4)c3ccccc3F)s2)ccc1OC(F)F
Ki [4]: 0.316 nM
pIC50 [6]: 7.5
solubility kinetic at 2 h [7]: < 5 µM

COc1ccc([C@H](Cc2c(Cl)c[n+]([O-])cc2Cl)OC(=O)c2cccc(CN(C(=O)O[C@H]3CN4CCC3CC4)c3ccccc3)c2)cc1OC
IC50 [2]: 5.01 nM
pIC50 [9]: 9
IC50 [3]: 6.31 nM
Ki [4]: 0.316 nM
pIC50 [6]: 9.2

COc1cc([C@H](Cc2c(Cl)c[n+]([O-])cc2Cl)OC(=O)c2ccc(CN(C(=O)O[C@H]3CN4CCC3CC4)c3ccccc3F)s2)ccc1OC(F)F
Ki [4]: 0.251 nM
pIC50 [6]: 8.2
solubility kinetic at 2 h [7]: < 5 µM

O=C(O[C@@H](Cc1c(Cl)c[n+]([O-])cc1Cl)c1ccc(OC(F)F)c(OCC2CC2)c1)c1ccc(CN(C(=O)O[C@H]2CN3CCC2CC3)c2ccccc2F)s1
Ki [4]: 0.2 nM
pIC50 [6]: 8.2
solubility kinetic at 2 h [7]: < 5 µM

COc1ccc([C@H](Cc2c(Cl)c[n+]([O-])cc2Cl)OC(=O)c2ccc(CN(C(=O)O[C@H]3CN4CCC3CC4)c3ccccc3F)s2)cc1OC
inhibition in vivo at 0.003 µmol/kg (Cavia porcellus [1]; 1 h): 97%
IC50 [2]: 1.26 nM
IC50 [3]: 0.501 nM
Ki [4]: 0.126 nM
inhibition in vivo at 0.003 µmol/kg (Cavia porcellus [10]; Cavia porcellus, Dunkin Hartley): 38%
ED50 (Cavia porcellus [5]; [30]): 0.0005 µmol/kg
pIC50 [6]: 9.1
solubility kinetic at 2 h [7]: 134 µM (≈ 97.9 µg/mL)

C[N+]1(C)[C@@H]2C[C@H](OC(=O)C(O)(c3cccs3)c3cccs3)C[C@H]1[C@@H]1O[C@@H]12
T1/2 [11]: 22.5 h
T1/2 [12]: 10.3 h

COc1ccc([C@H](Cc2c(Cl)c[n+]([O-])cc2Cl)OC(=O)c2ccc(CNC(C(=O)O[C@H]3CN4CCC3CC4)c3ccccc3)s2)cc1OC (stereo in doubt; 91a)
inhibition in vivo at 0.003 µmol/kg (Cavia porcellus [1]; 1 h): 73%
IC50 [2]: 3.16 nM
IC50 [3]: 1.58 nM
IC50 [13]: 2 nM
Ki [4]: 0.126 nM
inhibition (INH) (Cavia porcellus [10]): 32%
ED50 (Cavia porcellus [5]; 1 h): 0.0016 µmol/kg
pIC50 [6]: 8.9

COc1ccc([C@H](Cc2c(Cl)c[n+]([O-])cc2Cl)OC(=O)c2ccc(CNC(C(=O)O[C@H]3CN4CCC3CC4)c3ccccc3)s2)cc1OC (stereo in doubt; 92a) [listing 1 of 2 here]
fraction unbound at 0.5 h, up to 2 µM [14]: 0.07
inhibition (INH) (Cavia porcellus [1]; 0.003 umol/kg, 1 h): 74%
Ki [15]: 0.2 nM
Activity [16]: 30.67
pIC50 [2]: 8.8
Activity [17]: Non-Toxic
pIC50 [3]: 8.8
IC50 [13]: 1 nM
Activity [18]: Non-Toxic
half-life at 5 µM [19]: 0.183 h
microsomal CLint at 1 µM [20]: 126 µL/min/mg
Ki [4]: 0.0631 nM
Activity [21]: 12.83
inhibition (INH) (Cavia porcellus [10]): 67%
Papp A→B at 1 h, 10 µM [22]: 1.6 ×10⁻⁶ cm/s
ED50 (Cavia porcellus [5]; 1 h): 0.0007 µmol/kg
pIC50 [6]: 9
Activity (Rattus norvegicus [23]): 54%
solubility kinetic at 2 h [7]: 145 µM (≈ 105 µg/mL)
microsomal CLint at 1 µM [24]: 213 µL/min/mg
half-life at 5 µM [25]: 9 min
fraction unbound at 0.5 h, up to 2 µM [26]: 0.086
ED50 (Rattus norvegicus [27]): 0.03 µmol/kg

COc1ccc([C@H](Cc2c(Cl)c[n+]([O-])cc2Cl)OC(=O)c2ccc(CNC(C(=O)O[C@H]3CN4CCC3CC4)c3ccccc3)s2)cc1OC (stereo in doubt; 92a) [listing 2 of 2 here]
T1/2 [11]: 29.5 h
T1/2 [12]: 13.7 h

COc1ccc([C@H](Cc2c(Cl)c[n+]([O-])cc2Cl)OC(=O)c2ccc(CNC(C(=O)OC3CCN(C)CC3)c3ccccc3)s2)cc1OC (stereo in doubt; 92e)
pIC50 [2]: 8.6
inhibition in vivo at 0.03 µmol/kg (Cavia porcellus [28]): 2%
IC50 [3]: 0.501 nM
IC50 [13]: 1.58 nM
Ki [4]: 0.251 nM
ED50 (Cavia porcellus [5]; [31]): 0.0041 µmol/kg
inhibition in vivo at 0.03 µmol/kg (Cavia porcellus [29]): 75%

COc1ccc([C@H](Cc2c(Cl)c[n+]([O-])cc2Cl)OC(=O)c2ccc(CNC(C(=O)O[C@@H]3CCN(C)C3)c3ccccc3)s2)cc1OC (stereo in doubt; 92f)
inhibition in vivo at 0.003 µmol/kg (Cavia porcellus [1]): 96%
pIC50 [2]: 8.5
inhibition in vivo at 0.03 µmol/kg (Cavia porcellus [28]): 41%
IC50 [3]: 1.58 nM
IC50 [13]: 1.58 nM
Ki [4]: 0.126 nM
ED50 (Cavia porcellus [5]; [31]): 0.001 µmol/kg

O=C(Nc1c(Cl)cncc1Cl)c1ccc(OC(F)F)c(OCC2CC2)c1 [ROFLUMILAST]
Activity [17]: Toxic
Activity [21]: 72.5
